Data on 29 compounds can be found in US8765773B2, “Substituted hydroxamic acids and uses thereof” (Millennium Pharmaceuticals, Inc., priority 2010, dated 2014).

What is called inhibition is the change of the read-out against control, counted positive when it falls.

One assay concerns the target T1, purified human HDAC6 (Homo sapiens, UniProt Q9UBN7).
T1 construct: purchased BPS Bioscience 5006
T1 sequence (Q9UBN7 1-1215): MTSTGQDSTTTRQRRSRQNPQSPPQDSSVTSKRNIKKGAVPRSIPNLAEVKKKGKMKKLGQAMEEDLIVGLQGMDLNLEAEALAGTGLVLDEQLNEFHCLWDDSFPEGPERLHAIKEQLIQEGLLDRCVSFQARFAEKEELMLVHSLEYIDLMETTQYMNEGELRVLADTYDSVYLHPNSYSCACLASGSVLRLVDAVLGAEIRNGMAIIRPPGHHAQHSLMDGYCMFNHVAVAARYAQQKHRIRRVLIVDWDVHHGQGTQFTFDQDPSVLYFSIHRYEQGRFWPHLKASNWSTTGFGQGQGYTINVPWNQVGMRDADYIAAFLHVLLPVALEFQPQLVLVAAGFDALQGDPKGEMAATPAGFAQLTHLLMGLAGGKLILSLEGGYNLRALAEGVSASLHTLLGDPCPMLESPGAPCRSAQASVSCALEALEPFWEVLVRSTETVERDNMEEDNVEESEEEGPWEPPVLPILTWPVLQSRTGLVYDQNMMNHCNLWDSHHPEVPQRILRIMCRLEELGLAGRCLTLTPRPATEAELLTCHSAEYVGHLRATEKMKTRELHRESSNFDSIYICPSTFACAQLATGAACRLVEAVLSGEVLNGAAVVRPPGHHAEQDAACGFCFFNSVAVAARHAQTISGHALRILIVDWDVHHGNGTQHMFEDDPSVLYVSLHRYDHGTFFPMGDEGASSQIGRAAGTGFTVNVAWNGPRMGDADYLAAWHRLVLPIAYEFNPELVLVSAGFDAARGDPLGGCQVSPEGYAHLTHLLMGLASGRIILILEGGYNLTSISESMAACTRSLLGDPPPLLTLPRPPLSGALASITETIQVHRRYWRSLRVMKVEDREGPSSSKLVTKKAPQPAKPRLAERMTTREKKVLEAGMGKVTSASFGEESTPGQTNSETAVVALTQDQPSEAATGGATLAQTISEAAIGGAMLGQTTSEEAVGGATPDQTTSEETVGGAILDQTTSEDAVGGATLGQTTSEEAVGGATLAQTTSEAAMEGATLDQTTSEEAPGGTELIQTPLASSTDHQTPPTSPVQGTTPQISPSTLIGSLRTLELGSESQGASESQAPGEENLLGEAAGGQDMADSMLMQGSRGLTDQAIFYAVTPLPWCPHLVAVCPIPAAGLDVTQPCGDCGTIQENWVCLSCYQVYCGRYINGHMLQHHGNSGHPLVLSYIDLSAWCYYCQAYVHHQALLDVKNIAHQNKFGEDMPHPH
The assay is described as follows: HDAC6 Enzyme Assay. The class given is biochemical. The following applies: compound concentration 0.37 μM, read-out: Percent Inhibition. As to the method:
To measure the inhibition of HDAC6 activity, purified human HDAC6 (BPS Bioscience; Cat. No. 5006) is incubated with substrate Ac-Arg-Gly-Lys(Ac)-AMC peptide (Bachem Biosciences; Cat. No. I-1925) for 1 hour at 30° C. in the presence of test compounds or vehicle DMSO control. The reaction is stopped with the HDAC inhibitor trichostatin A (Sigma; Cat. No. T8552) and the amount of Arg-Gly-Lys-AMC generated is quantitated by digestion with trypsin (Sigma; Cat. No. T1426) and subsequent measurement of the amount of AMC released using a fluorescent plate reader (Pherastar; BMG Technologies) set at Ex 340 nm and Em 460 nm. Concentration response curves are generated by calculating the fluorescence increase in test compound-treated samples relative to DMSO-treated controls, and percentage inhibition values at a single concentration or enzyme inhibition (IC50) values are determined from those curves. One skilled in the art will appreciate that the values generated either as percentage inhibition at a single concentration or IC50 values are subject to experimental variation.
As for `CC(C)(C)C(=O)NCCCn1ccc2ccc(C(=O)NO)cc2c1=O` [Compound I-8, 2-{3-[(2,2-dimethylpropanoyl)amino]propyl}-N-hydroxy-1-oxo-1,2-dihydroisoquinoline-7-carboxamide], the inhibition at 0.37 µM is 91.7%.

Regarding `CC(c1ccccc1)n1cnc2ccc(C(=O)NO)cc2c1=O` (centres unmarked) [Compound I-12, N-hydroxy-4-oxo-3-(1-phenylethyl)-3,4-dihydroquinazoline-6-carboxamide], the inhibition at 0.37 µM is 99.2%.

As to `CCn1nccc1-c1nc2cc(C(=O)NO)ccc2c(=O)n1Cc1ccc(C(F)(F)F)cc1` [Compound I-13, 2-(1-ethyl-1H-pyrazol-5-yl)-N-hydroxy-4-oxo-3-[4-(trifluoromethyl)benzyl]-3,4-dihydroquinazoline-7-carboxamide], the inhibition at 0.37 µM came to 82.1%.

`O=C(NO)c1ccc2ncn(Cc3cccc(-c4c(Cl)cccc4Cl)c3)c(=O)c2c1` [Compound I-23, 3-[(2′,6′-dichlorobiphenyl-3-yl)methyl]-N-hydroxy-4-oxo-3,4-dihydroquinazoline-6-carboxamide]: the inhibition at 0.37 µM was found to be 92.2%.

In the case of `O=C(NO)c1ccc2c(=O)n(Cc3ccc(C(F)(F)F)cc3)c(-c3cccc4cccnc34)nc2c1` [Compound I-26, N-hydroxy-4-oxo-2-quinolin-8-yl-3-[4-(trifluoromethyl)benzyl]-3,4-dihydroquinazoline-7-carboxamide], the inhibition at 0.37 µM was found to be 92.3%.

With `O=C(NO)c1ccc2ncn(Cc3cccc(-c4ccccc4Cl)c3)c(=O)c2c1` [Compound I-28, 3-[(2′-chlorobiphenyl-3-yl)methyl]-N-hydroxy-4-oxo-3,4-dihydroquinazoline-6-carboxamide], the inhibition at 0.37 µM turned out to be 85.5%.

The same assay, now with this note: compound concentration 0.412 μM, read-out: Percent Inhibition.
Take `O=C(NO)c1ccc2ccn(Cc3ccc(Cl)c(Cl)c3)c(=O)c2c1` [Compound I-1, 2-(3,4-dichlorobenzyl)-N-hydroxy-1-oxo-1,2-dihydroisoquinoline-7-carboxamide]: the inhibition at 0.412 µM was determined as 95.9%.

As to `O=C(NO)c1ccc2ccn(CC3CCNCC3)c(=O)c2c1` [Compound I-2, N-hydroxy-1-oxo-2-(piperidin-4-ylmethyl)-1,2-dihydroisoquinoline-7-carboxamide], the inhibition at 0.412 µM was found to be 82.2%.

As to `COc1ccc(OCCCn2ccc3ccc(C(=O)NO)cc3c2=O)cc1` [Compound I-3, N-hydroxy-2-[3-(4-methoxyphenoxy)propyl]-1-oxo-1,2-dihydroisoquinoline-7-carboxamide], the inhibition at 0.412 µM was determined as 95.8%.

As to `O=C(NO)c1ccc2ncn(C(c3ccccc3)c3ccccc3)c(=O)c2c1` [Compound I-4, 3-(diphenylmethyl)-N-hydroxy-4-oxo-3,4-dihydroquinazoline-6-carboxamide], the inhibition at 0.412 µM worked out at 79.6%.

Consider `O=C(NO)c1ccc2ccn(Cc3ccc4ccccc4c3)c(=O)c2c1` [Compound I-5, N-hydroxy-2-(2-naphthylmethyl)-1-oxo-1,2-dihydroisoquinoline-7-carboxamide], for which the inhibition at 0.412 µM amounted to 96.5%.

Consider `O=C(NO)c1ccc2c(=O)n(CCc3ccccn3)c(C3CCCCC3)nc2c1` [Compound I-6, 2-cyclohexyl-N-hydroxy-4-oxo-3-(2-pyridin-2-ylethyl)-3,4-dihydroquinazoline-7-carboxamide], for which the inhibition at 0.412 µM turned out to be 77.7%.

With `O=C(NO)c1ccc2ccn(Cc3c(Cl)cccc3Cl)c(=O)c2c1` [Compound I-7, 2-(2,6-dichlorobenzyl)-N-hydroxy-1-oxo-1,2-dihydroisoquinoline-7-carboxamide], the inhibition at 0.412 µM came to 94.9%.

`CC(C)n1c(-c2ccccc2)nc2cc(C(=O)NO)ccc2c1=O` [Compound I-9, N-hydroxy-3-isopropyl-4-oxo-2-phenyl-3,4-dihydroquinazoline-7-carboxamide]: the inhibition at 0.412 µM was determined as 85%.

For the compound `Cc1ccn(CCn2ccc3ccc(C(=O)NO)cc3c2=O)n1` [Compound I-10, N-hydroxy-2-[2-(3-methyl-1H-pyrazol-1-yl)ethyl]-1-oxo-1,2-dihydroisoquinoline-7-carboxamide], the inhibition at 0.412 µM was 84.5%.

Consider `O=C(NO)c1ccc2ccn(CCCc3ccccc3)c(=O)c2c1` [Compound I-11, N-hydroxy-1-oxo-2-(3-phenylpropyl)-1,2-dihydroisoquinoline-7-carboxamide], for which the inhibition at 0.412 µM stood at 97%.

With `O=C(NO)c1ccc2ccn(Cc3cccc(OC(F)(F)F)c3)c(=O)c2c1` [Compound I-14, N-hydroxy-1-oxo-2-[3-(trifluoromethoxy)benzyl]-1,2-dihydroisoquinoline-7-carboxamide], the inhibition at 0.412 µM was determined as 95.1%.

Regarding `CC(C)Nc1nc2cc(C(=O)NO)ccc2c(=O)n1C` [Compound I-15, N-hydroxy-2-(isopropylamino)-3-methyl-4-oxo-3,4-dihydroquinazoline-7-carboxamide], the inhibition at 0.412 µM came out at 32.7%.

As for `O=C(NO)c1ccc2c(=O)n(Cc3cccc(C(F)(F)F)c3)cnc2c1` [Compound I-16, N-hydroxy-4-oxo-3-[3-(trifluoromethyl)benzyl]-3,4-dihydroquinazoline-7-carboxamide], the inhibition at 0.412 µM is 95.8%.

As for `CC(C)(C)c1cccc(OCc2nc3cc(C(=O)NO)ccc3c(=O)[nH]2)c1` [Compound I-17, 2-[(3-tert-butylphenoxy)methyl]-N-hydroxy-4-oxo-3,4-dihydroquinazoline-7-carboxamide], the inhibition at 0.412 µM is 30.6%.

Consider `Cc1nc2cc(C(=O)NO)ccc2c(=O)[nH]1` [Compound I-18, N-hydroxy-2-methyl-4-oxo-3,4-dihydroquinazoline-7-carboxamide], for which the inhibition at 0.412 µM worked out at 68.9%.

As to `O=C(NO)c1ccc2ccn(C(c3ccccc3)c3ccccc3)c(=O)c2c1` [Compound I-19, 2-(diphenylmethyl)-N-hydroxy-1-oxo-1,2-dihydroisoquinoline-7-carboxamide], the inhibition at 0.412 µM came to 94.4%.

As for `O=C(NO)c1ccc2ccn(CCCOc3cccc(OCc4ccccc4)c3)c(=O)c2c1` [Compound I-20, 2-{3-[3-(benzyloxy)phenoxy]propyl}-N-hydroxy-1-oxo-1,2-dihydroisoquinoline-7-carboxamide], the inhibition at 0.412 µM worked out at 83%.

For `O=C(NO)c1ccc2ccn(CCCOc3cccc4c3CCC4)c(=O)c2c1` [Compound I-21, 2-[3-(2,3-dihydro-1H-inden-4-yloxy)propyl]-N-hydroxy-1-oxo-1,2-dihydroisoquinoline-7-carboxamide], the inhibition at 0.412 µM amounted to 96.1%.

As to `O=C(NO)c1ccc2c(=O)n(CCOc3ccccc3)cnc2c1` [Compound I-22, N-hydroxy-4-oxo-3-(2-phenoxyethyl)-3,4-dihydroquinazoline-7-carboxamide], the inhibition at 0.412 µM turned out to be 96.4%.

In the case of `O=C(NO)c1ccc2ccn(Cc3cccc(F)c3F)c(=O)c2c1` [Compound I-24, 2-(2,3-difluorobenzyl)-N-hydroxy-1-oxo-1,2-dihydroisoquinoline-7-carboxamide], the inhibition at 0.412 µM is 93.7%.

Turning to `O=C(NO)c1ccc2ncn(CC3CC3)c(=O)c2c1` [Compound I-25, 3-(cyclopropylmethyl)-N-hydroxy-4-oxo-3,4-dihydroquinazoline-6-carboxamide], the inhibition at 0.412 µM came out at 84.7%.

Regarding `Cc1nc(-c2ccccc2OCCn2ccc3ccc(C(=O)NO)cc3c2=O)cs1` [Compound I-27, N-hydroxy-2-{2-[2-(2-methyl-1,3-thiazol-4-yl)phenoxy]ethyl}-1-oxo-1,2-dihydroisoquinoline-7-carboxamide], the inhibition at 0.412 µM stood at 98.6%.

Turning to `Cc1ccccc1OCc1nc2cc(C(=O)NO)ccc2c(=O)[nH]1` [Compound I-29, N-hydroxy-2-[(2-methylphenoxy)methyl]-4-oxo-3,4-dihydroquinazoline-7-carboxamide], the inhibition at 0.412 µM stood at 78.9%.
